Assay [1] relates to skin keratinocytes (HaCaT). The assay is described as follows: Protection from ROS (hydrogen peroxide) in skin keratinocytes (MTT assay). In kind it is cell-based. As to conditions: phosphatidylserine 25 μM, vitamin C 100 μM, vitamin E 100 μM, 24 hours; then 1 mM H2O2 about 1-1.5 hours; FIG. 8. How it is done:
In order to measure an effect of protecting the skin from the ROS in the keratinocyte by the phosphatidylserine of the invention, a following experiment was performed.
First, the skin keratinocytes (HaCaT) were seeded to the 24-well plate in an amount of 5×10^4 cells/well. Next day, it was treated with 25 μM phosphatidylserine aqueous solution (Doosan Biotech, Korea) (phosphatidylserine-treated group), 100 μM vitamin C (ascorbic acid-treated group) and 100 μM vitamin E (a-tocopherol-treated group) as the positive control group and then cultured for 24 hours. Next day, it was treated with 1 mM hydrogen peroxide (H2O2) and then cultured for about 1˜1.5 hours. Then, a cell viability was examined with the MTT assay.
(Tetrazolium dyes change colour on reduction, which living cells bring about.)

The subject of assay [2] is normal human keratinocytes. The assay is described as follows: Differentiation promoting effect in skin keratinocytes (western blot of involucrin and transglutaminase). As to conditions: phosphatidylserine 20 and 40 μM, calcium 1.2 mM, clofibrate 200 and 400 μM; 24 hours; FIG. 5. In kind it is cell-based. As to the method:
In order to examine a differentiation promoting effect in the skin keratinocytes by the phosphatidylserine of the invention, a following experiment was performed. First, the normal human keratinocytes (a gift from Dong-guk University) cultured in the KSFM (Keratinocyte-SFM; Gibco BRL/Life Technologies, USA) were seeded to the 35 mm^2 cell culture dish in an amount of 1.5×10^5 cells/dish and then cultured for a day. Next day, the culture medium was removed and a new culture medium containing 20 and 40 μM of phosphatidylserine aqueous solution, 1.2 mM calcium aqueous solution and 200 and 400 μM of clofibrate (Sigma, USA) added thereto was added and cultured for 24 hours. Next day, in order to make sure of a differentiation of the keratinocyte, a morphology change of the cell was checked with a phase contrast microscope (Nikon, Japan) and a photograph was taken with a digital camera attached to the microscope. In addition, a western blot was performed to check the protein expression amount of involucrin and transglutaminase, which have been known as a differentiation-marker proteins of the keratinocyte peculiar to the keratin. 500 μl of a lysis buffer having 2% sodium dodecyl sulfate (SDS) added thereto wad added and the cells were collected with a cell scrapper, so that cell lysate only was obtained. […]

Assay [3] relates to skin keratinocyte cell line (HaCaT). The assay is described as follows: Protection of skin keratinocytes from ultraviolet injury (MTT assay). In kind it is cell-based, human. As to conditions: 25 mJ/cm^2 UVB; phosphatidylserine 20 and 40 μM, WY-14643 200 μM; 24 hours; FIG. 4.
In assay [4] the test system is skin. As to conditions: applied to the skin; Sheu et al., J Invest Dermatol 118, 94-101, 2002; cited from earlier work.
The subject of assay [5] is skin keratinocyte cell line (HaCaT) and normal human keratinocytes. The assay is described as follows: Reduction of inflammatory response induced by ultraviolet irradiation in skin keratinocytes (ELISA of TNF-a, IL-6, IL-1alpha). Format: cell-based. As to conditions: 25 mJ/cm^2 UVB; phosphatidylserine 20 and 40 μM, WY-14643 200 μM; 24 hours; FIG. 3. How it is done: In order to examine an inflammatory response-reducing effect of the phosphatidylserine of the invention in the skin keratinocyte, which response results from the ultraviolet irradiation, a following experiment was performed in accordance with a method disclosed in the literature (Stefan et. al., The Journal of Investigate Dermatology, 117, pp 1430-1436, 2001).
First, the skin keratinocyte cell line (HaCaT, a gift from Yonsei univeritym, Korea) was seeded to a 35 mm^2 of cell culture dish in an amount of 3×10^5 cells/dish and then cultured for a day. Next day, the culture medium was removed and the cell was washed with 1× phosphate-buffered saline (PBS), 700 μl of 1×PBS was added to each of the dishes, it was irradiated 25 mJ/cm^2 UVB and then PBS was removed. […] Next day, the culture medium was collected and then amounts of TNF-a and IL-6 which have been known as inflammatory cytokines were measured with an enzyme-linked immunosorbent assay (ELISA) method. In addition, in order to check that there occurred a similar inflammatory response reducing effect also in the normal human skin keratinocyte, an experiment was performed in the above-mentioned manner using normal human keratinocytes (a gift from Dong-guk University) instead of the HaCaT cell line and then an amount of IL-1alpha secreted to the culture medium was measured with the ELISA.
On the technique in general: An ELISA detects its analyte on a solid surface through an enzyme-linked reagent.

Assay [6] deals with TPA-induced ear inflammation in CD-1 mouse. The assay is described as follows: Alleviation of skin damage (inflammatory response) due to TPA in mouse ear. Format: in vivo. As to conditions: TPA 0.03%; applied 30 μl per cm^2 at 45 minutes and 4 hours after induction; phosphatidylserine 0.5%, clofibrate 1 mM, Wy14643 1 mM; FIG. 2. As to the method:
In order to examine a skin damage (inflammatory response)-alleviating effect of the phosphatidylserine of the invention, which damage results from skin inflammation-inducing material, a following experiment was performed in accordance with a method used by Sheu et. al. (The Journal of Investigate Dermatology, 118, pp 94-101, 2002).
First, CD-1 mouse (male & female, 6-8 weeks, Charles River, US) was used as an experimental object. TPA (12-0-tetradecanoylphorbol-13-acetate) 0.03% (wt./vol.; in acetone) solution 10 μl, which was skin inflammation-inducing material, was treated to inner and outer parts of both ears of the experimental animal. The ear was thickened due to TPA and there occurred an inflammatory response. Then, clofibrate (1 mM) and Wy14643 (1 mM) as already-known positive control group, which are agonists of PPAR-a, and the 0.5% phosphatidylserine containing aqueous solution used as the Example 1 as an experimental material were applied to both ears in an amount of 30 μl per cm^2 at times of 45 minutes and 4 hours after the inflammation was induced. After that, the treated parts of the ears were subject to a biopsy, and the biopsy parts were fixed to 4% formaldehyde and then subject to Hematoxylene & Eosin (E&H) staining. The tissue slide stained with H&E was magnified to 100 folds to check the inflammation alleviation.

Molecules are shown by their SMILES.

The values below come from patent US8022051B2, “Composition for protection and improvement of skin, or reinforcing skin barrier function comprising phosphatidylserine” (Doosan Corporation, priority 2004, dated 2011).

Turning to `O=C1O[C@H]([C@@H](O)CO)C(O)=C1O` [ascorbic acid, reference compound], the “protection effect from reactive oxygen species (cell viability, MTT)” value in assay [1] is reported as “exhibited the protection effect”.

On to `[Ca+2]` [calcium, reference compound], for which, in assay [2], the “protein expression of involucrin and transglutaminase” value was “caused the expressions of the two proteins to be increased”.

In the case of `Cc1c(C)c2c(c(C)c1O)CC[C@@](C)(CCC[C@H](C)CCC[C@H](C)CCCC(C)C)O2` [a-tocopherol, reference compound], the “protection effect from reactive oxygen species (cell viability, MTT)” value in assay [1] was “exhibited the protection effect”.

With `Cc1cccc(Nc2cc(Cl)nc(SCC(=O)O)n2)c1C` [WY14643, reference compound], the “protection of skin keratinocytes from ultraviolet injury (cell survival, MTT)” value in assay [3] is “protected the skin keratinocytes from the ultraviolet injury”. Besides, in assay [4], the “inflammation due to the skin stimulating material” value was “decreased”. The “inflammatory response increased due to the ultraviolet irradiation (TNF-a, IL-6, IL-1alpha amounts)” value in assay [5] was “considerably alleviated”. Further, the “inflammation alleviation (H&E stained ear tissue)” value in assay [6] is “inflammation was alleviated”.
